The values that follow are results of earlier work, collected in US20100049492A1, “METHOD AND APPARATUS FOR MODELING SKIN SENSITIZATION” (Entelos, Inc., priority 2006, published 2010).

SMILES strings stand for the structures.

This data set relates to lymph node (LN) proliferation. The settings on record: categories based on data available in the public domain.
For `Nc1ccc(C(=O)O)cc1` [PABA], the “chemical category (skin sensitizer strength)” value (“chemical category” for short) was “non-sensitizers”.
As for `CCCCCCCC/C=C\CCCCCCCC(=O)OCCOCC(OCCO)C1OCC(OCCO)C1OCCO` (stereo not drawn) [Tween 80], the “chemical category” value is on record as “non-sensitizers”.
With `O=C/C=C/c1ccccc1` [cinnamic aldehyde], the “chemical category” value is listed as “moderate sensitizers”.
For `Oc1ccc(O)cc1` [hydroquinone], the “chemical category” value is reported as “strong sensitizers”.
`CC=Cc1ccc(O)c(OC)c1` [isoeugenol]: the “chemical category” value is “moderate sensitizers”.
Take `CCO/C=C1\N=C(c2ccccc2)OC1=O` [oxazalone]: the “chemical category” value was “strong sensitizers”.
